Entries after “also recorded” stand apart in the source; their conditions may differ.
Key:
SH-SY5Y cells = assay: Mitochondrial ROS (Mito-SOX) in SH-SY5Y cells; format: cell-based
Protocol: Cells cultured on coverslips or 24-well plates were washed with DPBS and then incubated with 5 µM Mito-SOX™ Red (Invitrogen, M36008), a mitochondrial superoxide indicator, for 10 min at 37 °C. For cells cultured on coverslips, the images were visualized by microscope, and quantification of images was then carried out using NIH ImageJ software. At least 100 cells per group were counted in the analysis.
The bimolecular fluorescence was examined 24-hour after transfection (n = 3, one-way ANOVA with Tukey’s post-hoc test, scale bar = 30 μm). (D) Quantification of the concentration (ng/ml) of extracellular αSyn monomer and oligomer, and intracellular αSyn oligomer in Tet-inducible SH-SY5Y cells that were pre-treated with TAT or CS2 peptide 30-minute before adding doxycycline (Dox) to induce αSyn expression. The concentration of αSyn species was determined by ELISA (n = 4, one-way ANOVA with Tukey’s post-hoc test; data are mean ± SEM). (E) Representative images of Mito-SOX staining in SH-SY5Y cells that were pre-treated with TAT or CS2 peptide and transfected with split Venus-αSyn vectors. Mitochondrial ROS production was determined by Mito-SOX staining after 24-hour transfection (n = 4, two-tailed Student’s t test, scale bar = 30 μm).

[1] = system: mThy1-hSNCA mice (substantia nigra / midbrain); assay: Brain immunostaining / immunohistochemistry in mThy1-hSNCA mice; format: in vivo, mouse; conditions: 3 mg/kg/day s.c.
Protocol: C57BL/6 N-Tg (Thy1-SNCA)15Mjff/J (JAX: 017682) breeders (C57Bl/6NJ genetic background) were purchased from Jackson Laboratories. The mice were mated, bred, and genotyped in the animal facility of Case Western Reserve University. All mice were maintained at a 12-hour light/dark cycle (on 6 am, off 6 pm). All randomization and peptide treatments in mThy1-hSNCA mice were prepared by an experimenter not associated with the behavioral and neuropathology analysis. Only male mice were used in the study. mThy1-hSNCA transgenic mice and their age-matched WT littermates were implanted with a 28-day subcutaneous osmotic pump (Alzet, Cupertino CA, Model 2004) containing either TAT control peptide or CS2 peptide, which delivered the peptides at indicated rate (1 or 3 or 10 mg/kg/day). The pump was replaced once every four weeks. All mice were sacrificed at age of 10-month for neuropathology assessment.
For immunofluorescence staining of mouse brain sections, mice were deeply anesthetized and transcardially perfused with 4% paraformaldehyde in PBS. Brain sections were washed in PBS 3 times and subjected for antigen retrieval in 0.01 M sodium citrate buffer with 0.05% TWEEN-20, followed by permeation with 0.2% Triton X-100 in PBS at room temperature for 10 min. Sections were then blocked with 10% normal goat serum in PBS and incubated with primary antibodies overnight at 4 °C and then stained with secondary antibodies. Images of the staining were acquired using Fluoview (FV3000) confocal microscope (Olympus).
Frozen brain sections (20 μm, coronal) were washed in PBS 3 times and subjected for antigen retrieval in 0.01 M sodium citrate buffer with 0.05% TWEEN-20. After washing 3 times in TBS, sections were then incubated in 3%H2O2/w methanol for 30 min at room temperature to quench endogenous peroxidase. After washing in TBS, sections were blocked in 10% normal goat serum with 1XTBST for one hour at room temperature and incubated with anti-pS129-αSyn (ab51253, clone EP1536Y, abcam) or anti- αSyn aggregates (MABN389, clone 5G4, Millipore) antibody in TBST overnight. Secondary antibody and DAB staining were provided by the IHC Select HRP/DAB kit (DAB150, Millipore). Hematoxylin QS (H-3404, Vector laboratory) was used to stain nucleus. The intensity of αSyn was conducted using Fiji ImageJ software. The same image exposure times and threshold settings were used for all sections from all treatment groups. Quantitation was performed blinded to the experimental groups.
Fig. 7 CS2 treatment is protective in mThy1-hSNCA mouse model of PD. (A) Experimental schematic of CS2 treatment in mThy1-hSNCA (Thy1) mouse model of PD: TAT or CS2 peptide was administered (3 mg/kg/day) via subcutaneous osmotic pump (O.P.) in Thy1 mice and their wild-type (WT) littermates starting from age of 4-month till 10-month. […] (D) Representative images of pS129-αSyn staining in substantia nigra of WT and Thy1 mice treated with TAT or CS2 peptide (scale bar = 100 μm). […] (G) Representative images of ClpP and tyrosine […] (TH) staining on the brain coronal sections from TAT or CS2-treated Thy1 mice and their WT littermates (scale bar = 100 μm). […] (H) Representative images of IBA1 and GFAP staining in the midbrain of TAT or CS2 treated Thy1 mice and their WT littermates (SN: substantia nigra) (scale bar = 180 μm).
(B) Representative images of αSyn aggregates staining (5G4) in substantia nigra of TAT or CS2 treated Thy1 mice (scale bar = 40µm).

ClpP (HEK293T cells) = assay: ClpP protein level, western blot, HEK293T cells; format: cell-based; conditions: WT or A53T αSyn overexpression; 30 min pretreatment; n = 4–5 (CS1: n = 4)
αSyn oligomer = αSyn oligomer ELISA, Tet-inducible αSyn SH-SY5Y cells; format: cell-based, human; conditions: 10 µM, two days, vs TAT, n = 4
Protocol: After one day incubation with doxycycline (1µM), αSyn tet-on inducible expression SHSY5Y cells were treated with TAT or CS2 peptides at 10 µM for another two days. The level of αSyn monomer released into culture medium was measured using LEGEND MAX human αSyn ELISA kit (448607, Biolegend). The level of extracellular and intracellular αSyn oligomers was measured using human alpha synuclein oligomer ELISA kit (MBS730762, Mybioresource).

[2] = midbrain, mThy1-hSNCA, n = 3 mice/group

`CC(C)[C@H](NC(=O)CNC(=O)CNC(=O)CCCCCNC(=O)[C@H](CCCNC(=N)N)NC(=O)[C@H](CCCNC(=N)N)NC(=O)[C@H](CCCNC(=N)N)NC(=O)[C@H](CCC(N)=O)NC(=O)[C@H](CCCNC(=N)N)NC(=O)[C@H](CCCNC(=N)N)NC(=O)[C@H](CCCCN)NC(=O)[C@H](CCCCN)NC(=O)[C@H](CCCNC(=N)N)NC(=O)CNC(=O)[C@@H](N)Cc1ccc(O)cc1)C(=O)N[C@H](C(=O)N[C@H](C(=O)N[C@@H](C)C(=O)O)[C@@H](C)O)C(C)C` [CS2, TAT-C6-GGVVTA] was tested, and the “mitochondrial ROS, ClpP-deficient cells” value (SH-SY5Y cells; ClpPsh SH-SY5Y overexpressing αSyn, effect of reducing ROS, n = 13 areas/group) was “no protective effect; also recorded: not observed in ClpP-deficient cells”, the “mitochondrial ROS (Mito-SOX intensity)” value (SH-SY5Y cells; SH-SY5Y expressing VN/VC-αSyn (CS1: WT αSyn), Mito-SOX 5 µM, vs TAT) was “significant reduction of the fluorescence intensity of Mito-SOX” and the “ClpP level in midbrain DA neurons” value ([1]; TH+ neurons, immunostaining, n = 3 mice/group) was “restored by CS2”. For the same compound, the “IBA1 and GFAP in WT mice” value ([1]; WT mice) was “no effect in WT mice”, the “GFAP (astrocyte) intensity” value [1, 2] was “significantly attenuated both markers” and the “IBA1 (microglia) intensity” value [1, 2] was “significantly attenuated both markers”. For the same compound, the “pS129-αSyn accumulation in SN” value ([1]; n = 3 mice/group) was “reduced by CS2 treatment”, the “αSyn aggregates in SN (5G4)” value ([1]; n = 3 mice/group) was “reduced by CS2 treatment” and the “ClpP protein level, HEK293T” value (ClpP (HEK293T cells)) was “significantly restored ClpP protein levels”. For the same compound, the “extracellular αSyn oligomer” value (αSyn oligomer) was “decreased levels” and the “intracellular αSyn oligomer” value (αSyn oligomer) was “decreased levels”.
